Experimental data published in paper PMC10048907, “Antennal Transcriptome Analysis of Olfactory Genes and Characterization of Odorant Binding Proteins in Odontothrips loti (Thysanoptera: Thripidae)” (International Journal of Molecular Sciences, 2023).
Read-outs that look alike come from different tables or passages of the source.

Columns and labels:
[1] = biological target: recombinant O.lotOBP6; experiment: Fluorescence competitive binding assay with 1-NPN probe; design: species or system Odontothrips loti; conditions: for IC50: 1× PBS pH 7.2~7.4, room temperature, triplicates, read-out: IC50 (concentration of ligand halving the initial fluorescence value of 1-NPN)
Description: Fluorescence was measured on a F-7000 fluorescence spectrophotometer (Hitachi, Tokyo, Japan) at room temperature with a 1 cm light path quartz cuvette and 10 nm slits for both excitation and emission. The fluorescent probe N-phenyl-1-naphthylamine (1-NPN) was excited at 337 nm, and emission was recorded between 370 and 520 nm. The pure protein was dissolved with 1× PBS (pH 7.2~7.4) at a final concentration of 2 μM. The ligands and 1-NPN were dissolved in methanol at the concentration of 1 mM.
To measure the affinity of 1-NPN to O.lotOBP6, a 2 μM solution of protein in 2 mL 1× PBS was titrated with 1-NPN to final concentrations of 0.25~8 μM. The affinity of ligands was measured by the titration of the O.lotOBP6/1-NPN complex at the concentration of 2 μM by adding ligand to final concentrations of 0.25~10 μM. The dissociation constants of the competitors were calculated by the equation Ki = IC50/(1 + [1-NPN]/K1-NPN), where IC50 is the concentration of ligands halving the initial fluorescence value of 1-NPN, [1-NPN] is the free concentration of 1-NPN, and K1-NPN is the dissociation constant of the complex O.lotOBP6/1-NPN. Experiments were performed in triplicates. GraphPad Prism 7.0 was used to perform nonlinear regression analysis on the standard curve and the dissociation curve.

[2] = system: Megalurothrips usitatus adults; design: method as in PMID 32246573; conditions: field trials, cited from earlier work
[3] = system: adult O. loti; experiment: Y-tube olfactometer choice tests with volatiles; type: in vivo, Odontothrips loti; conditions: volatile 10 ng/μL in paraffin oil vs paraffin oil control, chi-square test; for Response of male adult O. loti in Y-tube olfactometer: male adults
Description: In the behavioral assays, the female and male adults were reared together, while 3–5 days old female and male adults were collected separately by reproductive morphology. Eleven ligands with high binding affinities to O.lotOBP6/1-NPN complex based on fluorescence binding assays were used in the test. The responses of female and male O. loti to 11 volatiles (Table 3) were measured derived from M. sativa (Liu Y-Q, unpublished data) or semiochemicals previously used in Y-tube olfactometer bioassays. The glass Y-tube consisted of a stem and two arms (10 cm long, 1 cm in diameter) separated from each other at an angle of 75°. Air drawn into the olfactometer was first purified by active charcoal, moistened by distilled water in a gas-washing bottle, and split into two streams, with a flow rate of 50 mL min^−1. Two glass flasks (100 mL) provided test and control odor sources. Connections between the components of the olfactometer apparatus were made with Teflon tubes. Olfactometer experiments were carried out in a dark room at 26 ± 1 °C. Light was provided by a LED light (28 W), which was placed at the Y end of the olfactometer. The volatile sample of 10 ng/μL was dissolved in paraffin oil as the test odor source, with the control sample being paraffin oil. A single O. loti was introduced to the base tube of the Y-tube and observed for 5 min. When the test thrip entered a half-length of either arm of the Y-tube and stayed for 1 min, the choice was recorded. […] After five test thrips were tested, the odor sources were swapped to avoid directional effects in the apparatus. To avoid the effects of travelling residual odors of test thrips, ten test thrips tests were followed by a new Y-tube, which was cleaned with 75% ethanol and oven dried at 60 °C for 30 min. Sixty biological replicates were carried out for each female or male treatment. Results were analyzed by Chi-square test using IBM SPSS 22.

[4] = O.lotOBP6/1-NPN complex 2 μM, calculated from IC50, read-out: Ki (dissociation constant, Ki = IC50/(1 + [1-NPN]/K1-NPN))
[5] = competitive fluorescence binding curves, read-out: Ki (high binding affinities with the O.lotOBP6/1-NPN complex)

Row | Compound | IC50 ([1]; O.lotOBP6/1-NPN complex 2 μM) | Ki [1, 4] | Ki [1, 5] | also measured
1 | c1ccc(Nc2cccc3ccccc23)cc1 [1-NPN, N-phenyl-1-naphthylamine, reference compound] |  |  |  | Kd ([1]; 2 μM protein titrated with 1-NPN 0.25~8 μM, Scatchard equation, read-out: Dissociation constant of recombinant O.lotOBP6 protein to 1-NPN): 1050 nM
2 | CCCCC(CC)CO (centres unmarked) [2-Ethyl-1-hexanol] | 3800 ± 310 nM | 1570 ± 130 nM | < 10000 nM | 
3 | C=CCCC=O [4-Pentenal] | > 50000 nM |  |  | 
4 | CC(=O)OC/C=C(\C)CC/C=C(\C)CCC=C(C)C [(2E,6E)-farnesyl acetate] |  |  |  | Duration of attraction effect ([2]; dose of 60 μg): at least 6 days; Attractiveness to adults compared to the control [2]: significantly more attractive
5 | CC/C=C\CCOC(=O)CCC [(Z)-3-Hexenyl butyrate] | 5580 ± 380 nM | 2300 ± 160 nM | < 10000 nM | Response of male adult O. loti in Y-tube olfactometer [3]: significantly attracted
6 | O=Cc1ccccc1 [Benzaldehyde] | 1620 ± 120 nM | 670 ± 50 nM | < 10000 nM | 
7 | Cc1cc(C(C)(C)C)c(O)c(C(C)(C)C)c1 [Butylated hydroxytoluene] | > 50000 nM |  |  | 
8 | C=C(C)[C@H]1CC=C(C)CC1 [D-Limonene] | > 50000 nM |  |  | 
9 | CCOC(=O)c1cccnc1 [Ethyl nicotinate] | > 50000 nM |  |  | 
10 | CC12CCC(CC1)C(C)(C)O2 [Eucalyptol] | 2060 ± 50 nM | 850 ± 20 nM | < 10000 nM | 
11 | Cc1cccc(C)c1 [m-Xylene] | 8410 ± 310 nM | 3470 ± 130 nM | < 10000 nM | 
12 | COc1ccc(C=O)cc1 [p-Anisaldehyde] | 4590 ± 640 nM | 1890 ± 260 nM | < 10000 nM | 

The next lines start with results.

Row | IC50 ([1]; O.lotOBP6/1-NPN complex 2 μM) | Ki [1, 4] | Ki [1, 5] | Compound | also measured
13 | 6920 ± 240 nM | 2860 ± 100 nM | < 10000 nM | C=CC(C)(O)CCC=C(C)C (centres unmarked) [Linalool] | 
14 | 1400 ± 90 nM | 580 ± 40 nM | < 10000 nM | CCCCCCCCC=O [Nonanal] | 
15 | 1100 ± 10 nM | 450 nM | < 10000 nM | O=Cc1ccccc1O [Salicylaldehyde] | 
16 | 2600 ± 440 nM | 1070 ± 180 nM | < 10000 nM | CCCCCCCCCCCCC [Tridecane] | 
17 | 340 ± 30 nM | 140 ± 10 nM | < 10000 nM | C=C(C)C1CCC(C)C(=O)C1 (centres unmarked) [p-Menth-8-en-2-one] | Response of female adult O. loti in Y-tube olfactometer ([3]; female adults): significantly attracted; Response of male adult O. loti in Y-tube olfactometer [3]: significantly attracted
18 | > 50000 nM |  |  | CC1=CCC2CC1C2(C)C (stereo not drawn) [α-Pinene] | 
